Laboratory results published in ChEMBL document CHEMBL3044672, “N9- and N7-(Chloromethyl Phenymethyl)Chloropurine Derivatives from , '-Dichloroxylenes: Synthesis and Anticancer Activity” (2005).

Legend:
Format in all cases: functional
[1] = system: A498; test: Cytotoxicity against Homo sapiens (human) A498 cells after 48 hr by sulforhodamine B assay; conditions: A498, 48 h
[2] = system: ACHN; test: Cytotoxicity against Homo sapiens (human) ACHN cells after 48 hr by sulforhodamine B assay; conditions: for CC50: read-out: LC50 (the source's name)
[3] = system: 786-0; test: Cytotoxicity against Homo sapiens (human) 786-0 cells after 48 hr by sulforhodamine B assay; conditions: 786-0, 48 h
[4] = system: SK-OV-3; test: Cytotoxicity against Homo sapiens (human) SKOV3 cells after 48 hr by sulforhodamine B assay; conditions: SK-OV-3, 48 h
[5] = system: OVCAR-4; test: Cytotoxicity against Homo sapiens (human) OVCAR4 cells after 48 hr by sulforhodamine B assay; conditions: OVCAR-4, 48 h
[6] = system: IGROV-1; test: Cytotoxicity against Homo sapiens (human) IGROV1 cells after 48 hr by sulforhodamine B assay; conditions: IGROV-1, 48 h
[7] = system: OVCAR-3; test: Cytotoxicity against Homo sapiens (human) OVCAR3 cells after 48 hr by sulforhodamine B assay; conditions: OVCAR-3, 48 h
[8] = system: UACC-62; test: Cytotoxicity against Homo sapiens (human) UACC62 cells after 48 hr by sulforhodamine B assay; conditions: UACC-62, 48 h
[9] = system: SK-MEL-5; test: Cytotoxicity against Homo sapiens (human) SK-MEL-5 cells after 48 hr by sulforhodamine B assay; conditions: SK-MEL-5, 48 h
[10] = system: SK-MEL-2; test: Cytotoxicity against Homo sapiens (human) SK-MEL-2 cells after 48 hr by sulforhodamine B assay; conditions: SK-MEL-2, 48 h
[11] = system: LOX IMVI; test: Cytotoxicity against Homo sapiens (human) LOXIMVI cells after 48 hr by sulforhodamine B assay
[12] = system: SF-539; test: Cytotoxicity against Homo sapiens (human) SF539 cells after 48 hr by sulforhodamine B assay; conditions: SF-539, 48 h
[13] = system: MDA-MB-231; test: Cytotoxicity against Homo sapiens (human) MDA-MB-231 cells after 48 hr by sulforhodamine B assay; conditions: MDA-MB-231, 48 h
[14] = system: DU-145; test: Cytotoxicity against Homo sapiens (human) DU145 cells after 48 hr by sulforhodamine B assay; conditions: DU-145, 48 h
[15] = system: UO-31; test: Cytotoxicity against Homo sapiens (human) UO31 cells after 48 hr by sulforhodamine B assay; conditions: UO-31, 48 h
[16] = system: PC-3; test: Cytotoxicity against Homo sapiens (human) PC3 cells after 48 hr by sulforhodamine B assay; conditions: PC-3, 48 h
[17] = system: RXF 393; test: Cytotoxicity against Homo sapiens (human) RXF393 cells after 48 hr by sulforhodamine B assay; conditions: RXF 393, 48 h; for CC50: read-out: LC50 (the source's name)
[18] = system: SF-295; test: Cytotoxicity against Homo sapiens (human) SF295 cells after 48 hr by sulforhodamine B assay; conditions: SF-295, 48 h; for CC50: read-out: LC50 (the source's name)
[19] = system: KM12; test: Cytotoxicity against Homo sapiens (human) KM12 cells after 48 hr by sulforhodamine B assay; conditions: KM12, 48 h; for CC50: read-out: LC50 (the source's name)
[20] = system: HCT-15; test: Cytotoxicity against Homo sapiens (human) HCT15 cells after 48 hr by sulforhodamine B assay; conditions: HCT-15, 48 h; for CC50: read-out: LC50 (the source's name)
[21] = system: HCT-116; test: Cytotoxicity against Homo sapiens (human) HCT116 cells after 48 hr by sulforhodamine B assay; conditions: HCT-116, 48 h; for CC50: read-out: LC50 (the source's name)
[22] = system: HCC 2998; test: Cytotoxicity against Homo sapiens (human) HCC2998 cells after 48 hr by sulforhodamine B assay; conditions: HCC 2998, 48 h; for CC50: read-out: LC50 (the source's name)
[23] = system: NCI-H322M; test: Cytotoxicity against Homo sapiens (human) NCI-H322M cells after 48 hr by sulforhodamine B assay; conditions: for CC50: read-out: LC50 (the source's name)
[24] = system: HOP-62; test: Cytotoxicity against Homo sapiens (human) HOP62 cells after 48 hr by sulforhodamine B assay; conditions: HOP-62, 48 h; for CC50: read-out: LC50 (the source's name)
[25] = system: EKVX; test: Cytotoxicity against Homo sapiens (human) EKVX cells after 48 hr by sulforhodamine B assay; conditions: for CC50: read-out: LC50 (the source's name)
[26] = system: A549; test: Cytotoxicity against Homo sapiens (human) A549 cells after 48 hr by sulforhodamine B assay; conditions: A549, 48 h; for CC50: read-out: LC50 (the source's name)
[27] = system: RPMI-8226; test: Cytotoxicity against Homo sapiens (human) RPMI8226 cells after 48 hr by sulforhodamine B assay; conditions: RPMI-8226, 48 h; for CC50: read-out: LC50 (the source's name)
[28] = system: MOLT-4; test: Cytotoxicity against Homo sapiens (human) MOLT4 cells after 48 hr by sulforhodamine B assay; conditions: MOLT-4, 48 h; for CC50: read-out: LC50 (the source's name)
[29] = system: CCRF-CEM; test: Cytotoxicity against Homo sapiens (human) CCRF-CEM cells after 48 hr by sulforhodamine B assay; conditions: for CC50: read-out: LC50 (the source's name)
[30] = system: SF-268; test: Cytotoxicity against Homo sapiens (human) SF268 cells assessed as cell growth at 10^-4 M after 48 hr by […] assay; conditions: SF-268, 48 h, read-out: Activity
[31] = system: T47D; test: Cytotoxicity against Homo sapiens (human) T47D cells after 48 hr by sulforhodamine B assay
[32] = system: SW-620; test: Cytotoxicity against Homo sapiens (human) SW620 cells after 48 hr by sulforhodamine B assay; conditions: SW-620, 48 h

SMILES: ClCc1ccc(Cn2cnc3c(Cl)ncnc32)cc1
- GI50 [1]: 12.9 µM
- LC50 (lethal concentration, 50% cell kill) [1]: 57.5 µM
- TGI [1]: 26.9 µM
- GI50 [2]: 0.31 µM
- TGI [2]: 1.28 µM
- CC50 [2]: 3.8 µM
- GI50 [3]: 1.02 µM
- LC50 [3]: 21.4 µM
- TGI [3]: 3.98 µM
- GI50 [4]: 3.38 µM
- LC50 [4]: 91.2 µM
- TGI [4]: 13.8 µM
- GI50 [5]: 2.45 µM
- LC50 (concentration killing 50% of cells) [5]: > 100 µM
- TGI [5]: 6.6 µM
- GI50 [6]: 3.16 µM
- LC50 [6]: > 100 µM
- TGI [6]: 25.1 µM
- GI50 [7]: 1.38 µM
- LC50 [7]: 8.91 µM
- TGI [7]: 3.54 µM
- GI50 [8]: 1.23 µM
- LC50 (concentration causing 50% net cell kill) [8]: 9.45 µM
- TGI [8]: 33.9 µM
- GI50 [9]: 3.23 µM
- LC50 [9]: 74.1 µM
- TGI [9]: 20.9 µM
- GI50 [10]: 4.36 µM
- LC50 (concentration killing 50% of cells) [10]: > 100 µM
- TGI [10]: > 100 µM
- GI50 [11]: 1 µM
- LC50 [11]: 13.5 µM
- TGI [11]: 3.46 µM
- LC50 (concentration killing 50% of cells) [12]: 70.8 µM
- GI50 [13]: 1.77 µM
- LC50 [13]: 8.7 µM
- TGI [13]: 3.89 µM
- GI50 [14]: 1.31 µM
- LC50 [14]: 36.3 µM
- TGI [14]: 11.8 µM
- GI50 [15]: 2.08 µM
- LC50 (concentration causing 50% net cell kill) [15]: > 100 µM
- TGI [15]: 4.57 µM
- GI50 [16]: 4.78 µM
- LC50 (concentration causing 50% cell kill) [16]: > 100 µM
- TGI [16]: 72.4 µM
- GI50 [17]: 2.3 µM
- TGI [17]: 5.49 µM
- CC50 [17]: > 100 µM
- GI50 [18]: 0.27 µM
- TGI [18]: 3.46 µM
- CC50 [18]: 24 µM
- GI50 [19]: 2.14 µM
- TGI [19]: 10.2 µM
- CC50 [19]: 95.5 µM
- GI50 [20]: 1.95 µM
- TGI [20]: 12.6 µM
- CC50 [20]: 63.1 µM
- GI50 [21]: 1.12 µM
- TGI [21]: 2.45 µM
- CC50 [21]: 25.1 µM
- GI50 [22]: 0.66 µM
- TGI [22]: 2.04 µM
- CC50 [22]: 5.12 µM
- GI50 [23]: 1.82 µM
- TGI [23]: 4.16 µM
- CC50 [23]: 9.33 µM
- GI50 [24]: 1.94 µM
- TGI [24]: 6.76 µM
- CC50 [24]: 32.4 µM
- GI50 [25]: 2.45 µM
- TGI [25]: 6.92 µM
- CC50 [25]: 38.9 µM
- GI50 [26]: 1.38 µM
- TGI [26]: 18.2 µM
- CC50 [26]: 51.3 µM
- GI50 [27]: 2.13 µM
- TGI [27]: 9.34 µM
- CC50 [27]: > 100 µM
- GI50 [28]: 4.78 µM
- TGI [28]: > 100 µM
- CC50 [28]: > 100 µM
- GI50 [29]: 0.51 µM
- TGI [29]: > 100 µM
- CC50 [29]: > 100 µM
- growth at 100 µM [30]: 26%

SMILES: ClCc1ccccc1Cn1cnc2ncnc(Cl)c21
- GI50 [1]: 18.6 µM
- LC50 (lethal concentration, 50% cell kill) [1]: 57.5 µM
- TGI [1]: 33.1 µM
- GI50 [2]: 1.99 µM
- TGI [2]: 4.26 µM
- CC50 [2]: 9.12 µM
- GI50 [3]: 3.98 µM
- LC50 [3]: 47.9 µM
- TGI [3]: 12.9 µM
- GI50 [4]: 7.58 µM
- LC50 [4]: 85.1 µM
- TGI [4]: 26.9 µM
- GI50 [5]: 4.89 µM
- LC50 (concentration killing 50% of cells) [5]: 77.6 µM
- TGI [5]: 20.4 µM
- GI50 [6]: 4.26 µM
- LC50 [6]: > 100 µM
- TGI [6]: 22.9 µM
- GI50 [7]: 2.04 µM
- LC50 [7]: 8.31 µM
- TGI [7]: 4.16 µM
- GI50 [8]: 1.86 µM
- LC50 (concentration causing 50% net cell kill) [8]: 19.1 µM
- TGI [8]: 5.12 µM
- GI50 [9]: 1.38 µM
- LC50 [9]: 15.8 µM
- TGI [9]: 4.07 µM
- GI50 [10]: 4.16 µM
- LC50 (concentration killing 50% of cells) [10]: > 100 µM
- TGI [10]: 19.5 µM
- GI50 [11]: 1.34 µM
- LC50 [11]: 7.07 µM
- TGI [11]: 3.09 µM
- GI50 [12]: 2.34 µM
- LC50 (concentration killing 50% of cells) [12]: 12 µM
- TGI [12]: 5.01 µM
- GI50 [31]: 1.99 µM
- LC50 [31]: 4.26 µM
- TGI [31]: 4.26 µM
- GI50 [13]: 2.75 µM
- LC50 [13]: 25.1 µM
- TGI [13]: 6.91 µM
- GI50 [14]: 2.95 µM
- LC50 [14]: 33.1 µM
- TGI [14]: 10.2 µM
- GI50 [15]: 3.23 µM
- LC50 (concentration causing 50% net cell kill) [15]: 77.6 µM
- TGI [15]: 10.7 µM
- GI50 [16]: 4.46 µM
- LC50 (concentration causing 50% cell kill) [16]: 74.1 µM
- TGI [16]: 19.1 µM
- GI50 [17]: 1.65 µM
- TGI [17]: 6.54 µM
- CC50 [17]: > 100 µM
- GI50 [18]: 7.94 µM
- TGI [18]: 20.4 µM
- CC50 [18]: 46.8 µM
- GI50 [32]: 2.23 µM
- TGI [32]: 4.67 µM
- CC50 ([32]; read-out: LC50 (the source's name)): 10 µM
- GI50 [19]: 3.63 µM
- TGI [19]: 11.2 µM
- CC50 [19]: 38 µM
- GI50 [20]: 1.38 µM
- TGI [20]: 2.88 µM
- CC50 [20]: 6.16 µM
- GI50 [21]: 1.51 µM
- TGI [21]: 4.07 µM
- CC50 [21]: 40.7 µM
- GI50 [22]: 2.23 µM
- TGI [22]: 4.26 µM
- CC50 [22]: 7.94 µM
- GI50 [23]: 4.67 µM
- TGI [23]: 15.8 µM
- CC50 [23]: 40.7 µM
- GI50 [24]: 11.2 µM
- TGI [24]: 28.8 µM
- CC50 [24]: 75.9 µM
- GI50 [25]: 5.37 µM
- TGI [25]: 17.8 µM
- CC50 [25]: 45.7 µM
- GI50 [26]: 4.46 µM
- TGI [26]: 24 µM
- CC50 [26]: > 100 µM
- GI50 [27]: 2.08 µM
- TGI [27]: 5.49 µM
- CC50 [27]: 50.1 µM
- GI50 [28]: 1.65 µM
- TGI [28]: 4.26 µM
- CC50 [28]: 16.6 µM
- GI50 [29]: 1.44 µM
- TGI [29]: 3.54 µM
- CC50 [29]: 8.7 µM
- growth at 100 µM [30]: 0%
